The values below come from patent US5495046A, “Alkoxyphenylalkylamine derivatives” (Taisho Pharmaceutical Co., Ltd., priority 1991, dated 1996).

Test [1] concerns the target sigma receptor (Rattus norvegicus, UniProt Q9R0C9). Description: biochemical. The class given is binding, rat (male Wistar). How it is done:
(§1) Receptor Binding Experiment
(§2) As test animals, male Wistar rats were used.
(§3) As a [^3 H]-labeled ligand, (+)[^3 H]3-PPP [3-(3-hydroxyphenyl)-N-n-propylpiperidine] was used for sigma receptor, while (-)[^3 H] sulpiride was used for D2 receptor.
(§4) Binding reactions with the use of these [^3 H]-labeled ligands were performed respectively in accordance with the following methods (1) and (2) described in Molecular Pharmacology, 32, p. 772 (1987) and Journal of Pharmacy and Pharmacology, 32, p. 820 (1987).
(1) (+) [^3 H] 3-PPP binding: A membrane preparation obtained from the whole brain of rat, (+) [^3 H] 3-PPP and a test drug were reacted in a 50 mM Tris hydrochloride buffer (pH 8.0) at 21° C. for 90 minutes.
(§5) After the completion of each reaction, the reaction mixture was filtered under sucking onto a glass filter (GF/B) and the radioactivity of the filter paper was measured with a liquid scintillation spectrometer.
The data obtained by reacting in the presence of 10 μM (+) 3-PPP and 10 μM (-) thiapride were regarded respectively as the nonspecific binding of (+) [^3 H] 3-PPP and (-) [^3 H] sulpiride. Then the difference between the total binding and the nonspecific binding was referred to as the specific binding.

In test [2] the target is D2 receptor (Rattus norvegicus, UniProt P61169). In words: Receptor binding experiment: (-)[3H] sulpiride binding. Set-up: species or system rat (male Wistar). On the procedure:
as §1, §2, §3, §4
(2) (-) [^3 H] sulpiride binding: A membrane preparation obtained from the corpus striatum of rat, (-) [^3 H] sulpiride and a test drug were reacted in a 50 mM Tris hydrochloride buffer (pH 7.7) at 37° C. for 10 minutes.
as §5
The data obtained by reacting in the presence of 10 μM (+) 3-PPP and 10 μM (-) thiapride were regarded respectively as the nonspecific binding of (+) [^3 H] 3-PPP and (-) [^3 H] sulpiride. Then the difference between the total binding and the nonspecific binding was referred to as the specific binding. The [^3 H]-labeled ligand at a definite concentration and the test drug at various concentrations were reacted under the conditions as specified in the above (1) or (2) to thereby give an inhibition curve.

For test [3], the system named is (+) SKF 10047-induced abnormal behaviors. Description: Antagonism against (+) SKF 10047-induced abnormal behaviors. The class given is in vivo, ICR male mice. As to conditions: Mus musculus. On the procedure:
Examination on Antagonism Against (+) SKF 10047-induced Abnormal Behaviors
Preparations were formulated by dissolving 10 mg of each test drug in 1 ml of dimethylsulfoxide, diluting with physiological saline to a concentration of […], and further diluting the obtained solution to 0.01 and 0.001 mg/kg (administration dose: 0.1 ml per 10 g body weight of mouse).
The invention compound A, the comparative drug AA and Rimcazole were each orally administered in doses of 0.03, 0.1, 0.3, 1.0, 3.0 and 10.0 mg/kg. Preparations were formulated by suspending in a 5% solution of acacia.
(+) SKF10047 [(+)-N-allylnormetazocine hydrochloride; manufactured by Sigma] was intraperitoneally administered in a dose of 30 mg/kg. The preparation was formulated by dissolving in physiological saline.
As test animals, ICR male mice (Nippon Charles River) aged 4 to 5 weeks were used. Each group had 10 animals.
Each animal was introduced into a transparent acrylic resin cage (24 cm in length×17.5 cm in width×12 cm in height) and allowed to fully adapt to the environment. 35 minutes after the administration of a preparation of a test drug, (+) SKF10047 was administered. […]] were evaluated for 40 minutes at intervals of 5 minutes and the ED25 (mg/kg) was determined.

Setting [4] is: (+)[3H]3-PPP, rat whole brain membrane, pH 8.0, 21° C., 90 minutes.
Where [5] appears, read: read-out: 50% inhibitory concentration (IC50), Sigma, (+)[3H]3-PPP, rat whole brain membrane, pH 8.0, 21° C., 90 minutes.
The mark [6] stands for this setting: read-out: 50% inhibitory concentration (IC50), D2, (-)[3H] sulpiride, rat corpus striatum membrane, pH 7.7, 37° C., 10 minutes.
The mark [7] stands for this setting: (-)[3H] sulpiride, rat corpus striatum membrane, pH 7.7, 37° C., 10 minutes.

Where a name gives a salt, the structure may show the parent alone. Read-outs that look alike come from different tables or passages of the source.

Sequence of D2 receptor (P61169 whole entry): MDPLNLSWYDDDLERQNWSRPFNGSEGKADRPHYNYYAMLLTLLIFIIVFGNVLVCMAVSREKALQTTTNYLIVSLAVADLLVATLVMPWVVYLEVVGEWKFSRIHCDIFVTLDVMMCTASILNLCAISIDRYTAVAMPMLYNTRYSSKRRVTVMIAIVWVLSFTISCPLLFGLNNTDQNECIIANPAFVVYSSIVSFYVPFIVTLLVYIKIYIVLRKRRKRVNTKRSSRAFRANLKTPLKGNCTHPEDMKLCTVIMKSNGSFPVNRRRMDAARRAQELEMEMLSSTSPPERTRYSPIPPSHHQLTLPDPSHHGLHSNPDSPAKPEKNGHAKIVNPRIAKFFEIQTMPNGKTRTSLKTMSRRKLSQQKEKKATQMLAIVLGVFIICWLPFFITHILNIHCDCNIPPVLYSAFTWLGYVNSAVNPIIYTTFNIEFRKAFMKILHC
Sequence of sigma receptor (Q9R0C9 whole entry): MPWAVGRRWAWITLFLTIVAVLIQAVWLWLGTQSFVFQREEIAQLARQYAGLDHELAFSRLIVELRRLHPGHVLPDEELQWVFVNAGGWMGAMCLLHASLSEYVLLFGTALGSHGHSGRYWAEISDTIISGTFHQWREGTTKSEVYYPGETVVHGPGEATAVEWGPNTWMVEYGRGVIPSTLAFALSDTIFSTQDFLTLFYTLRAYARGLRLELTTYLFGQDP

Consider `CCCN1CCCC(c2cccc(O)c2)C1` (single isomer, unassigned) [Compound 3-PPP, 3-(3-hydroxyphenyl)-N-n-propylpiperidine, reference compound], for which the IC50 in test [1] (setting [4]) was determined as 24.3 nM.
In the case of `CCCN(CCC)CCc1cc(Cl)ccc1OCCc1ccccc1.O=C(O)C(=O)O` [A, N,N-Di-n-propyl-2-[5-chloro-2-(2-phenylethoxy)phenyl]ethylamine oxalate], the IC50 in test [1] (setting [5]) was 7.21 nM; in test [2] (setting [6]) it was 112 nM. Besides, in test [3] (po), the ED25 turned out to be 235 µg/kg.
In the case of `COc1ccc(CCN(C)C)cc1OCc1ccccc1.Cl` [AA, N,N-dimethyl-2-(4-methoxy-3-benzyloxyphenyl)ethylamine hydrochloride, reference compound], the IC50 in test [1] was determined as 94.4 nM; in test [2] it was 40800 nM. The same compound yielded an ED25 in test [3] (po) of 23600 µg/kg.
Regarding `CCCN(CCC)CCCc1cc(Cl)ccc1OCCc1ccccc1` [B, N,N-Di-n-propyl-3-[5-chloro-2-(2-phenylethoxy)phenyl]propylamine oxalate], the IC50 is 28.9 nM in test [1] (setting [4]) and > 1000 nM in test [2] (setting [7]).
In turn, `CCCN(CCC)CCCCc1cc(Cl)ccc1OCCc1ccccc1` [C, N,N-Di-n-propyl-4-[5-chloro-2-(2-phenylethoxy)phenyl]butylamine oxalate] yielded an IC50 in test [1] (setting [4]) of 26.4 nM.
Regarding `CCCN(CCC)CCc1ccc(Cl)cc1OCCc1ccccc1` [D, N,N-Di-n-propyl-2-[4-chloro-2-(2-phenylethoxy)phenyl]ethylamine hydrochloride], the IC50 in test [1] (setting [5]) is 17.9 nM; in test [2] it was 1450 nM.
As for `CCCN(CCC)CCc1cc(Br)ccc1OCCc1ccccc1` [E, N,N-Di-n-propyl-2-[5-bromo-2-(2-phenylethoxy)phenyl]ethylamine oxalate], the IC50 was 11.1 nM in test [1] (setting [5]) and 169 nM in test [2] (setting [6]).
In the case of `CCCN(CCC)CCCc1cc(Br)ccc1OCCc1ccccc1` [F, N,N-Di-n-propyl-3-[5-bromo-2-(2-phenylethoxy)phenyl]propylamine oxalate], the IC50 stood at 10.9 nM in test [1] (setting [5]) and 438 nM in test [2] (setting [6]).
Regarding `CCCN(CCC)CCc1cc(F)ccc1OCCc1ccccc1` [G, N,N-Di-n-propyl-2-[5-fluoro-2-(2-phenylethoxy)phenyl]ethylamine hydrochloride], the IC50 in test [1] is 13.3 nM; in test [2], 1910 nM.
Turning to `CCCN(CCC)CCc1cccc(F)c1OCCc1ccccc1` [H, N,N-Di-n-propyl-2-[3-fluoro-2-(2-phenylethoxy)phenyl]ethylamine oxalate], the IC50 in test [1] came out at 21.6 nM; in test [2], 3520 nM.
For `CCCN(CCC)CCc1ccc(OC)c(OCCc2ccccc2)c1.O=C(O)C(=O)O` [I, N,N-Di-n-propyl-2-[4-methoxy-3-(2-phenylethoxy)phenyl]ethylamine oxalate], in test [2], the IC50 is > 1000 nM. Also, in test [3] (po), the ED25 came to 0.8 µg/kg.
For `CCCN(CCC)CCCc1ccc(OC)c(OCCc2ccccc2)c1.O=C(O)C(=O)O` [J, N,N-Di-n-propyl-3-[4-methoxy-3-(2-phenylethoxy)phenyl]propylamine oxalate], the IC50 in test [1] (setting [4]) was determined as 0.984 nM; in test [2] (setting [6]), 950 nM. In addition, the ED25 in test [3] (oral, 35 minutes before (+) SKF10047 30 mg/kg i.p., stereotypy scores for 40 minutes at intervals of 5 minutes, read-out: ED25) worked out at 2.63 µg/kg.
With `CCCN(CCC)CCc1ccc(OC)c(OCCCc2ccccc2)c1` [K, N,N-Di-n-propyl-2-[4-methoxy-3-(3-phenylpropoxy)phenyl]ethylamine oxalate], the IC50 in test [1] (setting [5]) stood at 4.7 nM.
For the compound `COc1ccc(CCN2CCN(c3ccccc3)CC2)cc1OCCc1ccccc1` [L, N-2-[4-Methoxy-3-(2-phenylethoxy)phenyl]ethyl-N'-phenylpiperazine oxalate], the IC50 in test [1] (setting [5]) came out at 33 nM; in test [2] (setting [6]) it was 183 nM.
Regarding `CCCN(CCC)CCc1ccc(O)c(OCCc2ccccc2)c1` [M, N,N-Di-n-propyl-2-[4-hydroxy-3-(2-phenylethoxy)phenyl]ethylamine hydrochloride], the values for the IC50 in test [1] (setting [5]) and in test [2] were 3.09 nM and 2500 nM, respectively.
As to `CCCN(CCC)CCc1ccc(OC)c(OCCc2ccc(F)cc2)c1` [N, N,N-Di-n-propyl-2-[4-methoxy-3-[2-(4-fluorophenyl)ethoxy]phenyl]ethylaminehydrochloride], the figures for the IC50 in test [1] and in test [2] (setting [7]) were 1.03 nM and > 10000 nM, respectively.
In the case of `CCCN(CCC)CCc1ccc(OC)c(OCCc2cccc(Cl)c2)c1` [O, N,N-Di-n-propyl-2-[4-methoxy-3-[2-(3-chlorophenyl)ethoxy]phenyl]ethylamineoxalate], the IC50 came to 1.49 nM in test [1] (setting [5]) and 6600 nM in test [2] (setting [7]).
As for `CCCN(CCC)CCc1ccc(OC)c(OCCc2ccc(OC)cc2)c1` [P, N,N-Di-n-propyl-2-[4-methoxy-3-[2-(4-methoxyphenyl)ethoxy]phenyl]ethylamine oxalate], the IC50 in test [1] worked out at 1.03 nM; in test [2], 4990 nM.
On to `CCCN(CCC)CCc1ccc(OC)c(OCCc2cccs2)c1` [Q, N,N-Di-n-propyl-2-[4-methoxy-3-[2-(2-thienyl)ethoxy]phenyl]ethylamine hydrochloride], for which the figures for the IC50 in test [1] (setting [5]) and in test [2] were 9.35 nM and > 10000 nM, respectively.
In the case of `CCCN(CCC)CCc1ccc(OCCc2ccccc2)c(OC)c1` [R, N,N-Di-n-propyl-2-[3-methoxy-4-(2-phenylethoxy)phenyl]ethylamine oxalate], the IC50 in test [1] is 11.5 nM; in test [2], > 10000 nM.
With `CCCN(CCCO)CCc1ccc(OC)c(OCCc2ccccc2)c1` [S, N-n-propyl-N-3-hydroxypropyl-2-[4-methoxy-3-(2-phenylethoxy)phenyl]ethylamine oxalate], the IC50 in test [1] (setting [4]) is 18.5 nM; in test [2] (setting [7]), > 10000 nM.
For `CCCN(CCC)CCc1cccc(OC)c1OCCc1ccccc1.O=C(O)C(=O)O` [T, N,N-Di-n-propyl-2-[3-methoxy-2-(2-phenylethoxy)phenyl]ethylamine oxalate], the IC50 in test [1] (setting [5]) is 2.71 nM; in test [2], > 10000 nM. The compound also came in with an ED25 in test [3] (po) of 1.7 µg/kg.
`CCCN(CCC)CCCc1cccc(OC)c1OCCc1ccccc1` [U, N,N-Di-n-propyl-3-[3-methoxy-2-(2-phenylethoxy)phenyl]propylamine oxalate] came in with an IC50 in test [1] (setting [4]) of 12.5 nM.
As for `CCCN(CCC)CCc1cccc(OC)c1OCCCc1ccccc1` [V, N,N-Di-n-propyl-2-[3-methoxy-2-(3-phenylpropoxy)phenyl]ethylamine oxalate], in test [1], the IC50 stood at 1.65 nM.
On to `COc1cccc(CCN2CCCC2)c1OCCc1ccccc1` [W, N-2-[3-Methoxy-2-(2-phenylethoxy)phenyl]ethylpyrrolidine oxalate], for which the IC50 in test [2] was 5350 nM.
Turning to `CCCN(CCC)CCc1cc(OC)ccc1OCCc1ccccc1` [X, N,N-Di-n-propyl-2-[5-methoxy-2-(2-phenylethoxy)phenyl]ethylamine hydrochloride], the figures for the IC50 in test [1] (setting [5]) and in test [2] (setting [6]) were 7.06 nM and 791 nM, respectively.
With `CCCN(CCC)CCc1ccc(OC)cc1OCCc1ccccc1` [Y, N,N-Di-n-propyl-2-[4-methoxy-2-(2-phenylethoxy)phenyl]ethylamine oxalate], the IC50 in test [1] (setting [5]) was 6.6 nM; in test [2], 2350 nM.
As to `CCCN(CCC)CCc1ccc(OCCc2ccccc2)cc1OC` [Z, N,N-Di-n-propyl-2-[2-methoxy-4-(2-phenylethoxy)phenyl]ethylamine oxalate], the IC50 amounted to 6.83 nM in test [1] (setting [5]) and 9180 nM in test [2].
